Laboratory results as given in ChEMBL document CHEMBL3621071, “Novel isoniazid-amidoether derivatives: Synthesis, characterization and antimycobacterial activity evaluation” (Medchemcomm, 2015).
In brackets after ≈: the same amount, converted by molar mass. Activity calls are given as the source filed them. The rule behind the calls is not given here.

How the values were obtained:
[1] = system: Mycobacterium tuberculosis; experiment: Antimycobacterial activity against Mycobacterium tuberculosis H37Rv infected in Balb/c mouse assessed as reduction in spleen bacterial load at 100 mg/kg, po dosed once daily 5 days per week for 10 weeks; type: functional
[2] = system: Mycobacterium tuberculosis; experiment: Antimycobacterial activity against Mycobacterium tuberculosis H37Rv infected in Balb/c mouse assessed as reduction in lung bacterial load at 50 mg/kg, po dosed once daily 5 days per week for 3 to 10 weeks; type: functional, organism-based
[3] = system: Mycobacterium tuberculosis; experiment: Antimycobacterial activity against Mycobacterium tuberculosis H37Rv infected in Balb/c mouse assessed as reduction in lung bacterial load at 25 mg/kg, po dosed once daily 5 days per week for 3 to 10 weeks; type: functional, organism-based
THP-1 = experiment: Cytotoxic activity against human THP1 cells; type: cell-based
[4] = system: Mycobacterium tuberculosis; experiment: Antimycobacterial activity against Mycobacterium tuberculosis H37Rv infected in Balb/c mouse assessed as reduction in spleen bacterial load at 50 mg/kg, po dosed once daily 5 days per week for 6 weeks; type: functional
[5] = system: Mycobacterium tuberculosis; experiment: Antimycobacterial activity against Mycobacterium tuberculosis H37Rv infected in Balb/c mouse assessed as reduction in spleen bacterial load at 25 mg/kg, po dosed once daily 5 days per week for 10 weeks; type: functional
[6] = system: Mycobacterium tuberculosis; experiment: Antimycobacterial activity against Mycobacterium tuberculosis H37Rv infected in Balb/c mouse assessed as reduction in spleen bacterial load at 50 mg/kg, po dosed once daily 5 days per week for 3 weeks; type: functional
[7] = system: Mycobacterium tuberculosis; experiment: Antimycobacterial activity against Mycobacterium tuberculosis H37Rv infected in Balb/c mouse assessed as reduction in spleen bacterial load at 100 mg/kg, po dosed once daily 5 days per week for 3 weeks; type: functional
[8] = system: Mycobacterium tuberculosis; experiment: Antimycobacterial activity against Mycobacterium tuberculosis H37Rv infected in Balb/c mouse assessed as reduction in lung bacterial load at 100 mg/kg, po dosed once daily 5 days per week for 3 to 10 weeks; type: functional, organism-based
[9] = system: Mycobacterium tuberculosis; experiment: Antimycobacterial activity against Mycobacterium tuberculosis H37Rv infected in Balb/c mouse assessed as reduction in spleen bacterial load at 50 mg/kg, po dosed once daily 5 days per week for 10 weeks; type: functional
[10] = system: Mycobacterium tuberculosis; experiment: Antimycobacterial activity against Mycobacterium tuberculosis H37Rv ATCC 27294 assessed as inhibition of bacterial growth incubated for 14 days by inverted plate reader based macroscopy; type: functional; conditions: H37Rv ATCC 27294, 336 h
[11] = system: Mycobacterium tuberculosis; experiment: Antimycobacterial activity against Mycobacterium tuberculosis H37Rv infected in Balb/c mouse assessed as reduction in spleen bacterial load at 25 mg/kg, po dosed once daily 5 days per week for 3 weeks; type: functional
[12] = system: Mycobacterium tuberculosis; experiment: Antimycobacterial activity against Mycobacterium tuberculosis H37Rv infected in Balb/c mouse assessed as reduction in lung bacterial load at 25 mg/kg, po dosed once daily 5 days per week for 10 weeks; type: functional
[13] = system: Mycobacterium tuberculosis; experiment: Antimycobacterial activity against Mycobacterium tuberculosis H37Rv infected in Balb/c mouse assessed as reduction in lung bacterial load at 25 mg/kg, po dosed once daily 5 days per week for 3 weeks; type: functional
[14] = system: Mycobacterium tuberculosis; experiment: Antimycobacterial activity against Mycobacterium tuberculosis H37Rv infected in Balb/c mouse assessed as reduction in lung bacterial load at 25 mg/kg, po dosed once daily 5 days per week for 6 weeks; type: functional
[15] = system: Mycobacterium tuberculosis; experiment: Antimycobacterial activity against Mycobacterium tuberculosis H37Rv infected in Balb/c mouse assessed as reduction in spleen bacterial load at 25 mg/kg, po dosed once daily 5 days per week for 6 weeks; type: functional, organism-based
[16] = system: Mycobacterium tuberculosis; experiment: Antimycobacterial activity against Mycobacterium tuberculosis H37Rv infected in Balb/c mouse assessed as reduction in spleen bacterial load at 10 mg/kg, po dosed once daily 5 days per week for 6 weeks; type: functional
[17] = system: Mycobacterium tuberculosis; experiment: Antimycobacterial activity against Mycobacterium tuberculosis H37Rv infected in Balb/c mouse assessed as reduction in lung bacterial load at 10 mg/kg, po dosed once daily 5 days per week for 3 weeks; type: functional
[18] = system: Mycobacterium tuberculosis; experiment: Antimycobacterial activity against Mycobacterium tuberculosis H37Rv infected in Balb/c mouse assessed as reduction in lung bacterial load at 10 mg/kg, po dosed once daily 5 days per week for 6; type: functional
[19] = system: Mycobacterium tuberculosis; experiment: Antimycobacterial activity against Mycobacterium tuberculosis H37Rv infected in Balb/c mouse assessed as reduction in spleen bacterial load at 10 mg/kg, po dosed once daily 5 days per week for 10 weeks; type: functional, organism-based
[20] = system: Mycobacterium tuberculosis; experiment: Antimycobacterial activity against Mycobacterium tuberculosis H37Rv infected in Balb/c mouse assessed as reduction in lung bacterial load at 10 mg/kg, po dosed once daily 5 days per week for 10; type: functional, organism-based
[21] = system: Mycobacterium tuberculosis; experiment: Antimycobacterial activity against Mycobacterium tuberculosis H37Rv infected in Balb/c mouse assessed as reduction in spleen bacterial load at 10 mg/kg, po dosed once daily 5 days per week for 3 weeks; type: functional

In the case of `Cc1ccc(NC(=O)COc2ccc(/C=N/NC(=O)c3ccncc3)cc2)cc1`, the Activity [1] is reported as 3.11 log10CFU, the Activity [2] is reported as “inactive” and the Activity [3] is reported as “inactive”. For the same compound, the Activity (THP-1) was > 50 µM, the Activity [4] was 2.28 log10CFU and the Activity [5] was 1.23 log10CFU. For the same compound, the Activity [6] was 1.4 log10CFU, the Activity [7] was 1.77 log10CFU and the Activity [8] was “inactive”. The Activity [9] was 2.14 log10CFU, the MIC99 [10] was 0.39 µM (≈ 0.151 µg/mL) and the Activity [11] was 1.19 log10CFU.
With `O=C(COc1ccc(/C=N/NC(=O)c2ccncc2)cc1)Nc1cccc(Cl)c1` the Activity (THP-1) was > 50 µM and the MIC99 [10] was 0.78 µM (≈ 0.319 µg/mL).
In the case of `O=C(COc1ccc(/C=N/NC(=O)c2ccncc2)cc1)Nc1ccc([N+](=O)[O-])cc1`, the Activity (THP-1) is reported as > 50 µM and the MIC99 [10] is reported as 1.56 µM (≈ 0.654 µg/mL).
For `O=C(COc1ccc(/C=N/NC(=O)c2ccncc2)cc1)Nc1ccccc1F`, the Activity (THP-1) was > 50 µM and the MIC99 [10] was 0.78 µM (≈ 0.306 µg/mL).
With `O=C(COc1ccc(/C=N/NC(=O)c2ccncc2)cc1)Nc1ccc(Br)cc1` the Activity (THP-1) was > 50 µM and the MIC99 [10] was 0.78 µM (≈ 0.354 µg/mL).
For `NNC(=O)c1ccncc1` [ISONIAZID], the Activity [5] was “Active”, the Activity [12] was 3.38 log10CFU and the Activity [13] was 1.22 log10CFU. For the same compound, the Activity [14] was 2.59 log10CFU, the MIC99 [10] was 0.39 µM (≈ 0.0535 µg/mL) and the Activity [15] was “Active”. It also gave an Activity [11] of 2.66 log10CFU.
In the case of `CCc1ccc(NC(=O)COc2ccc(/C=N/NC(=O)c3ccncc3)cc2)cc1`, the Activity (THP-1) is reported as > 50 µM and the MIC99 [10] is reported as 0.39 µM (≈ 0.157 µg/mL).
In the case of `O=C(COc1ccc(/C=N/NC(=O)c2ccncc2)cc1)Nc1cccc(Br)c1`, the Activity (THP-1) is reported as > 50 µM and the MIC99 [10] is reported as 0.78 µM (≈ 0.354 µg/mL).
In the case of `COc1ccc(NC(=O)COc2ccc(/C=N/NC(=O)c3ccncc3)cc2)cc1`, the Activity (THP-1) is reported as > 50 µM and the MIC99 [10] is reported as 0.39 µM (≈ 0.158 µg/mL).
With `O=C(COc1ccc(/C=N/NC(=O)c2ccncc2)cc1)Nc1ccc(F)cc1` the Activity (THP-1) was > 50 µM and the MIC99 [10] was 0.78 µM (≈ 0.306 µg/mL).
`COc1ccc(CNC(=O)COc2ccc(/C=N/NC(=O)c3ccncc3)cc2)cc1` was tested, and the Activity (THP-1) was > 50 µM and the MIC99 [10] was 0.39 µM (≈ 0.163 µg/mL).
`O=C(COc1ccc(/C=N/NC(=O)c2ccncc2)cc1)Nc1ccccc1Cl` was tested, and the Activity (THP-1) was > 50 µM and the MIC99 [10] was 0.78 µM (≈ 0.319 µg/mL).
In the case of `O=C(COc1ccc(/C=N/NC(=O)c2ccncc2)cc1)Nc1cccnc1`, the Activity (THP-1) is reported as > 50 µM and the MIC99 [10] is reported as 0.39 µM (≈ 0.146 µg/mL).
In the case of `O=C(COc1ccc(/C=N/NC(=O)c2ccncc2)cc1)NCCc1ccccc1`, the Activity (THP-1) is reported as > 50 µM and the MIC99 [10] is reported as 0.78 µM (≈ 0.314 µg/mL).
In the case of `O=C(COc1ccc(/C=N/NC(=O)c2ccncc2)cc1)Nc1cccc2ccccc12`, the Activity (THP-1) is reported as > 50 µM and the MIC99 [10] is reported as 1.56 µM (≈ 0.662 µg/mL).
For `CC(C)c1ccc(NC(=O)COc2ccc(/C=N/NC(=O)c3ccncc3)cc2)cc1`, the Activity (THP-1) was > 50 µM and the MIC99 [10] was 0.39 µM (≈ 0.162 µg/mL).
With `O=C(COc1ccc(/C=N/NC(=O)c2ccncc2)cc1)Nc1ccccc1Br` the Activity (THP-1) was > 50 µM and the MIC99 [10] was 0.78 µM (≈ 0.354 µg/mL).
`CO[C@H]1/C=C/O[C@@]2(C)Oc3c(C)c(O)c4c(O)c(c(/C=N/N5CCN(C)CC5)c(O)c4c3C2=O)NC(=O)/C(C)=C\C=C\[C@H](C)[C@H](O)[C@@H](C)[C@@H](O)[C@@H](C)[C@H](OC(C)=O)[C@@H]1C` [RIFAMPIN] showed an Activity [16] of 3.31 log10CFU, an Activity [17] of 1.93 log10CFU and an Activity [18] of 2.8 log10CFU. The Activity [19] was “Active”, the Activity [20] was “Active” and the Activity [21] was 1.76 log10CFU.
For `O=C(COc1ccc(/C=N/NC(=O)c2ccncc2)cc1)Nc1ccccn1`, the Activity (THP-1) was > 50 µM and the MIC99 [10] was 0.78 µM (≈ 0.293 µg/mL).
`O=C(COc1ccc(/C=N/NC(=O)c2ccncc2)cc1)Nc1cccc(F)c1` was tested, and the Activity (THP-1) was > 50 µM and the MIC99 [10] was 0.78 µM (≈ 0.306 µg/mL).
For `Cc1ccc(CNC(=O)COc2ccc(/C=N/NC(=O)c3ccncc3)cc2)cc1`, the Activity (THP-1) was > 50 µM and the MIC99 [10] was 0.39 µM (≈ 0.157 µg/mL).
In the case of `O=C(COc1ccc(/C=N/NC(=O)c2ccncc2)cc1)NCc1ccccc1`, the Activity (THP-1) is reported as > 50 µM and the MIC99 [10] is reported as 0.78 µM (≈ 0.303 µg/mL).
`O=C(COc1ccc(/C=N/NC(=O)c2ccncc2)cc1)Nc1ccccc1` was tested, and the Activity (THP-1) was > 50 µM and the MIC99 [10] was 0.78 µM (≈ 0.292 µg/mL).
`O=C(COc1ccc(/C=N/NC(=O)c2ccncc2)cc1)Nc1ccc(Cl)cc1` was tested, and the Activity (THP-1) was > 50 µM and the MIC99 [10] was 0.39 µM (≈ 0.159 µg/mL).
